Columns and labels:
[1] = target: T1, S-methyl-5'-thioadenosine phosphorylase (Homo sapiens) (UniProt Q13126); assay: Kcat against human methylthioadenosine phosphorylase expressed in Escherichia coli BL21 DE3 cells
T1 sequence (whole entry): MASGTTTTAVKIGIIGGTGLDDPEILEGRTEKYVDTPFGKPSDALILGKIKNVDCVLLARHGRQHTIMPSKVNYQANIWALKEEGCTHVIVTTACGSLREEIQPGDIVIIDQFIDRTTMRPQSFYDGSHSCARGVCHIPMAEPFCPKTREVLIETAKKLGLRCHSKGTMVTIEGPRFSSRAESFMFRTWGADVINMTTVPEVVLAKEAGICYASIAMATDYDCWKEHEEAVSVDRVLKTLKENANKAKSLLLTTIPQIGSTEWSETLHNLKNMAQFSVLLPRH

[2] = target: T1, S-methyl-5'-thioadenosine phosphorylase (Homo sapiens); assay: Ratio of Kcat to Km against human Methylthioadenosine phosphorylase
[3] = substrate: CC(C)(C)SC[C@H]1O[C@@H](n2cnc3c(N)ncnc32)[C@H](O)[C@@H]1O; assay: (§1) Km against human methylthioadenosine phosphorylase expressed in Escherichia coli BL21 DE3 cells
[4] = substrate: CC(C)CCSC[C@H]1O[C@@H](n2cnc3c(N)ncnc32)[C@H](O)[C@@H]1O; assay: as §1
[5] = substrate: CC(C)CSC[C@H]1O[C@@H](n2cnc3c(N)ncnc32)[C@H](O)[C@@H]1O; assay: as §1
[6] = substrate: CCC(C)CSC[C@H]1O[C@@H](n2cnc3c(N)ncnc32)[C@H](O)[C@@H]1O; assay: as §1
[7] = substrate: CCCCSC[C@H]1O[C@@H](n2cnc3c(N)ncnc32)[C@H](O)[C@@H]1O; assay: as §1
[8] = substrate: CCSC[C@H]1O[C@@H](n2cnc3c(N)ncnc32)[C@H](O)[C@@H]1O; assay: as §1
[9] = substrate: COc1ccc(SC[C@H]2O[C@@H](n3cnc4c(N)ncnc43)[C@H](O)[C@@H]2O)cc1; assay: as §1
[10] = substrate: CSC[C@@H]1C[C@@H](O)[C@H](n2cnc3c(N)ncnc32)O1; assay: as §1
[11] = substrate: CSC[C@H]1O[C@@H](n2cnc3c(N)ncnc32)C(N=[N+]=[N-])[C@@H]1O; assay: as §1
[12] = substrate: CSC[C@H]1O[C@@H](n2cnc3c(N)ncnc32)C[C@@H]1O; assay: as §1
[13] = substrate: CSC[C@H]1O[C@@H](n2cnc3c(N)ncnc32)[C@H](N)[C@@H]1O; assay: as §1
[14] = substrate: C[C@H]1O[C@@H](n2cnc3c(N)ncnc32)[C@H](O)[C@@H]1O; assay: as §1
[15] = substrate: Cc1ccc(SC[C@H]2O[C@@H](n3cnc4c(N)ncnc43)[C@H](O)[C@@H]2O)cc1; assay: as §1
[16] = substrate: Cc1cccc(SC[C@H]2O[C@@H](n3cnc4c(N)ncnc43)[C@H](O)[C@@H]2O)c1; assay: as §1
[17] = substrate: Cc1ccccc1SC[C@H]1O[C@@H](n2cnc3c(N)ncnc32)[C@H](O)[C@@H]1O; assay: as §1
[18] = substrate: Nc1ncnc2c1ncn2[C@@H]1O[C@H](CCc2ccccc2)[C@@H](O)[C@H]1O; assay: as §1
[19] = substrate: Nc1ncnc2c1ncn2[C@@H]1O[C@H](CNc2ccccc2)[C@@H](O)[C@H]1O; assay: as §1
[20] = substrate: Nc1ncnc2c1ncn2[C@@H]1O[C@H](COc2ccccc2)[C@@H](O)[C@H]1O; assay: as §1
[21] = substrate: Nc1ncnc2c1ncn2[C@@H]1O[C@H](CSC2CCCC2)[C@@H](O)[C@H]1O; assay: as §1
[22] = substrate: Nc1ncnc2c1ncn2[C@@H]1O[C@H](CSC2CCCCC2)[C@@H](O)[C@H]1O; assay: as §1
[23] = substrate: Nc1ncnc2c1ncn2[C@@H]1O[C@H](CSCCO)[C@@H](O)[C@H]1O; assay: as §1
[24] = substrate: Nc1ncnc2c1ncn2[C@@H]1O[C@H](CSCCc2ccccc2)[C@@H](O)[C@H]1O; assay: as §1
[25] = substrate: Nc1ncnc2c1ncn2[C@@H]1O[C@H](CSCCc2ccccn2)[C@@H](O)[C@H]1O; assay: as §1
[26] = substrate: Nc1ncnc2c1ncn2[C@@H]1O[C@H](CSCc2ccccc2)[C@@H](O)[C@H]1O; assay: as §1
[27] = substrate: Nc1ncnc2c1ncn2[C@@H]1O[C@H](CSc2ccc(C(F)(F)F)cc2)[C@@H](O)[C@H]1O; assay: as §1
[28] = substrate: Nc1ncnc2c1ncn2[C@@H]1O[C@H](CSc2ccc3ccccc3n2)[C@@H](O)[C@H]1O; assay: as §1
[29] = substrate: Nc1ncnc2c1ncn2[C@@H]1O[C@H](CSc2ccccc2)[C@@H](O)[C@H]1O; assay: as §1
[30] = substrate: Nc1ncnc2c1ncn2[C@@H]1O[C@H](CSc2ccccn2)[C@@H](O)[C@H]1O; assay: as §1
[31] = substrate: Nc1ncnc2c1ncn2[C@@H]1O[C@H](CSc2ccncc2)[C@@H](O)[C@H]1O; assay: as §1
[32] = substrate: Nc1ncnc2c1ncn2[C@@H]1O[C@H](CSc2ncc[nH]2)[C@@H](O)[C@H]1O; assay: as §1
[33] = substrate: Nc1ncnc2c1ncn2[C@@H]1O[C@H](CSc2nccs2)[C@@H](O)[C@H]1O; assay: as §1

Nc1ncnc2c1ncn2[C@@H]1O[C@H](CSCCc2ccccc2)[C@@H](O)[C@H]1O
K cat [1]: 2.14 s⁻¹ | Ratio [2]: 0.43 µM⁻¹ s⁻¹

Nc1ncnc2c1ncn2[C@@H]1O[C@H](CSc2ccncc2)[C@@H](O)[C@H]1O
K cat [1]: 0.23 s⁻¹ | Ratio [2]: 0.26 µM⁻¹ s⁻¹

COc1ccc(SC[C@H]2O[C@@H](n3cnc4c(N)ncnc43)[C@H](O)[C@@H]2O)cc1
K cat [1]: 0.8 s⁻¹ | Ratio [2]: 0.11 µM⁻¹ s⁻¹

Nc1ncnc2c1ncn2[C@@H]1O[C@H](CSC2CCCC2)[C@@H](O)[C@H]1O
K cat [1]: 1.5 s⁻¹ | Ratio [2]: 0.47 µM⁻¹ s⁻¹

CSC[C@@H]1C[C@@H](O)[C@H](n2cnc3c(N)ncnc32)O1
K cat [1]: 0.004 s⁻¹ | Ratio [2]: 0.001 µM⁻¹ s⁻¹

Nc1ncnc2c1ncn2[C@@H]1O[C@H](COc2ccccc2)[C@@H](O)[C@H]1O
K cat [1]: 1.11 s⁻¹ | Ratio [2]: 0.09 µM⁻¹ s⁻¹

Nc1ncnc2c1ncn2[C@@H]1O[C@H](CSc2nccs2)[C@@H](O)[C@H]1O
K cat [1]: 2.49 s⁻¹ | Ratio [2]: 0.73 µM⁻¹ s⁻¹

Nc1ncnc2c1ncn2[C@@H]1O[C@H](CNc2ccccc2)[C@@H](O)[C@H]1O
K cat [1]: 2.02 s⁻¹ | Ratio [2]: 0.24 µM⁻¹ s⁻¹

CSC[C@H]1O[C@@H](n2cnc3c(N)ncnc32)C(N=[N+]=[N-])[C@@H]1O (stereo partly drawn)
K cat [1]: 0.04 s⁻¹ | Ratio [2]: 1.1e-05 µM⁻¹ s⁻¹

CCSC[C@H]1O[C@@H](n2cnc3c(N)ncnc32)[C@H](O)[C@@H]1O
K cat [1]: 2.9 s⁻¹ | Ratio [2]: 1.6 µM⁻¹ s⁻¹

CSC[C@H]1O[C@@H](n2cnc3c(N)ncnc32)C[C@@H]1O
K cat [1]: 0.28 s⁻¹ | Ratio [2]: 0.09 µM⁻¹ s⁻¹

CCC(C)CSC[C@H]1O[C@@H](n2cnc3c(N)ncnc32)[C@H](O)[C@@H]1O (stereo partly drawn)
K cat [1]: 4.2 s⁻¹ | Ratio [2]: 0.84 µM⁻¹ s⁻¹

Nc1ncnc2c1ncn2[C@@H]1O[C@H](CSc2ncc[nH]2)[C@@H](O)[C@H]1O
K cat [1]: 3.8 s⁻¹ | Ratio [2]: 0.42 µM⁻¹ s⁻¹

Nc1ncnc2c1ncn2[C@@H]1O[C@H](CSC2CCCCC2)[C@@H](O)[C@H]1O
K cat [1]: 1.57 s⁻¹ | Ratio [2]: 0.45 µM⁻¹ s⁻¹

Nc1ncnc2c1ncn2[C@@H]1O[C@H](CSCCc2ccccn2)[C@@H](O)[C@H]1O
K cat [1]: 1.01 s⁻¹ | Ratio [2]: 0.09 µM⁻¹ s⁻¹

CC(C)CCSC[C@H]1O[C@@H](n2cnc3c(N)ncnc32)[C@H](O)[C@@H]1O
K cat [1]: 5.5 s⁻¹ | Ratio [2]: 1.96 µM⁻¹ s⁻¹

CSC[C@H]1O[C@@H](n2cnc3c(N)ncnc32)[C@H](O)[C@@H]1O (stereo in doubt; 1)
K cat [1]: 4.6 s⁻¹ | Ratio [2]: 3.2 µM⁻¹ s⁻¹

Cc1ccc(SC[C@H]2O[C@@H](n3cnc4c(N)ncnc43)[C@H](O)[C@@H]2O)cc1
K cat [1]: 1.4 s⁻¹ | Ratio [2]: 0.93 µM⁻¹ s⁻¹

Nc1ncnc2c1ncn2[C@@H]1O[C@H](CSc2ccccc2)[C@@H](O)[C@H]1O
K cat [1]: 1.5 s⁻¹ | Ratio [2]: 0.5 µM⁻¹ s⁻¹

C[C@H]1O[C@@H](n2cnc3c(N)ncnc32)[C@H](O)[C@@H]1O
K cat [1]: 4.8 s⁻¹ | Ratio [2]: 0.8 µM⁻¹ s⁻¹

Cc1ccccc1SC[C@H]1O[C@@H](n2cnc3c(N)ncnc32)[C@H](O)[C@@H]1O
K cat [1]: 0.18 s⁻¹ | Ratio [2]: 0.03 µM⁻¹ s⁻¹

Nc1ncnc2c1ncn2[C@@H]1O[C@H](CCc2ccccc2)[C@@H](O)[C@H]1O
K cat [1]: 4.6 s⁻¹ | Ratio [2]: 3.5 µM⁻¹ s⁻¹

Nc1ncnc2c1ncn2[C@@H]1O[C@H](CSc2ccc3ccccc3n2)[C@@H](O)[C@H]1O
K cat [1]: 3.16 s⁻¹ | Ratio [2]: 0.46 µM⁻¹ s⁻¹

Nc1ncnc2c1ncn2[C@@H]1O[C@H](CSCc2ccccc2)[C@@H](O)[C@H]1O
K cat [1]: 2.5 s⁻¹ | Ratio [2]: 0.53 µM⁻¹ s⁻¹

Nc1ncnc2c1ncn2[C@@H]1O[C@H](CSc2ccc(C(F)(F)F)cc2)[C@@H](O)[C@H]1O
K cat [1]: 0.3 s⁻¹ | Ratio [2]: 0.17 µM⁻¹ s⁻¹

Nc1ncnc2c1ncn2[C@@H]1O[C@H](CSCCO)[C@@H](O)[C@H]1O
K cat [1]: 1.46 s⁻¹ | Ratio [2]: 0.058 µM⁻¹ s⁻¹

CSC[C@H]1O[C@@H](n2cnc3c(N)ncnc32)[C@H](O)[C@@H]1O (stereo in doubt; 7)
K cat [1]: 0.0065 s⁻¹ | Ratio [2]: 0.0001 µM⁻¹ s⁻¹

CC(C)CSC[C@H]1O[C@@H](n2cnc3c(N)ncnc32)[C@H](O)[C@@H]1O
K cat [1]: 2.3 s⁻¹ | Ratio [2]: 0.74 µM⁻¹ s⁻¹

Nc1ncnc2c1ncn2[C@@H]1O[C@H](CSc2ccccn2)[C@@H](O)[C@H]1O
K cat [1]: 3.44 s⁻¹ | Ratio [2]: 0.66 µM⁻¹ s⁻¹

CC(C)(C)SC[C@H]1O[C@@H](n2cnc3c(N)ncnc32)[C@H](O)[C@@H]1O
K cat [1]: 0.85 s⁻¹ | Ratio [2]: 0.05 µM⁻¹ s⁻¹

CCCCSC[C@H]1O[C@@H](n2cnc3c(N)ncnc32)[C@H](O)[C@@H]1O
K cat [1]: 5.9 s⁻¹ | Ratio [2]: 1.48 µM⁻¹ s⁻¹

CSC[C@H]1O[C@@H](n2cnc3c(N)ncnc32)C(F)[C@@H]1O (stereo partly drawn)
K cat [1]: 0.0004 s⁻¹

Cc1cccc(SC[C@H]2O[C@@H](n3cnc4c(N)ncnc43)[C@H](O)[C@@H]2O)c1
K cat [1]: 2.4 s⁻¹ | Ratio [2]: 1.2 µM⁻¹ s⁻¹

CSC[C@H]1O[C@@H](n2cnc3c(N)ncnc32)[C@H](N)[C@@H]1O
K cat [1]: 0.67 s⁻¹ | Ratio [2]: 0.022 µM⁻¹ s⁻¹

B1: S-methyl-5'-thioadenosine phosphorylase (Homo sapiens), Q13126 (protein)
chain: T1 sequence (whole entry)
Km [3]: 17 µM | Km [4]: 2.8 µM | Km [5]: 3.1 µM | Km [6]: 5 µM | Km [7]: 4 µM | Km [8]: 1.8 µM | Km [9]: 7 µM | Km [10]: 3.9 µM | Km [11]: 3600 µM | Km [12]: 3.1 µM | Km [13]: 30 µM | Km [14]: 6 µM | Km [15]: 1.5 µM | Km [16]: 2 µM | Km [17]: 5.6 µM | Km [18]: 1.3 µM | Km [19]: 8.5 µM | Km [20]: 12 µM | Km [21]: 3.2 µM | Km [22]: 3.5 µM | Km [23]: 25 µM | Km [24]: 5 µM | Km [25]: 10.2 µM | Km [26]: 4.6 µM | Km [27]: 1.7 µM | Km [28]: 6.9 µM | Km [29]: 3 µM | Km [30]: 5.2 µM | Km [31]: 0.88 µM | Km [32]: 9 µM | Km [33]: 3.4 µM

From ChEMBL document CHEMBL1139590, “Design, synthesis, and biological evaluation of novel human 5'-deoxy-5'-methylthioadenosine phosphorylase (MTAP) substrates” (Bioorg Med Chem Lett, 2005)
